Laboratory results published in article PMC12088962, “Design, synthesis, and biological investigation of new thiazole-based derivatives as multi-targeted inhibitors endowed with antiproliferative, antioxidant, and antibacterial properties” (Frontiers in Chemistry, 2025).
In brackets after ≈: the same amount, converted by molar mass.

Experiments:
[1] = test system: HT-29 cells; test: Antiproliferative MTT assay; settings: Homo sapiens, HT-29, read-out: Antiproliferative activity IC50 ± SEM, HT-29
From the text: (§8) Dose-response assays determined the IC50 values for the novel compounds. We derived the reported data from a minimum of two separate experiments, each consisting of three repetitions per concentration.
Assay for antiproliferative effect

[2] = test system: A-549 cells; test: Antiproliferative MTT assay; settings: for IC50: Homo sapiens, A549, read-out: Antiproliferative activity IC50 ± SEM, A-549
From the text: as §8
Assay for antiproliferative effect

[3] = test system: four cancer cell lines (A-549, MCF-7, Panc-1, HT-29); test: Antiproliferative MTT assay, average over four cancer cell lines; settings: for GI50: Homo sapiens, read-out: Antiproliferative activity, Average (GI50)
From the text: as §8
Assay for antiproliferative effect

[4] = in vitro; settings: human, MCF-10A mammary gland epithelial cells (normal cell line)
[5] = target: E. coli DNA gyrase (Escherichia coli, UniProt P0AES6); test: DNA gyrase supercoiling assay; assay type: biochemical; settings: for remaining activity at 1 µM: read-out: RA (residual activity of the enzyme), E. Coli DNA gyrase
Method: 4.2.3. Determination of Inhibitory Activities on E. coli DNA Gyrase.
All the final compounds were tested for E. coli DNA gyrase inhibitory activity in a supercoiling assay. Activities were determined on streptavidin -coated 96-well microtiter plates from Thermo scientific Pierce. First, the plates were rehydrated with buffer (20 mM Tris -HCl with pH 7.6, 0.01% […]
immobilized. After washing off the unbound oligonucleotide, the enzyme test was performed. The reaction volume of 30 μL in buffer (35 mM Tris-HCl with pH 7.5, 4 mM MgCl 2, 24 mM KCl, 2 […]
1.5 U of DNA gyrase from E. coli or S. aureus, 0.75 μg of relaxed pNO1 plasmid, and 3 μL solution of the inhibitor in 1 0% DMSO and 0.008% Tween 20. Reaction solutions were incubated at 37 °C […]
for 30 min. After that, the TF buffer (50 mM NaOAc with pH 5.0, 50 mM NaCl and 50 mM MgCl2) was added to terminate the enzymatic reaction. After additional incubation for 30 min at rt, during which biotin-oligonucleotide-plasmid triplex was formed, the unbound plasmid was washed off using TF buffer and SybrGOLD in T10 buffer (10 mM Tris HCl wit h pH 8.0 and 1 mM EDTA) was added. The fluorescence was measured with a microplate reader (BioTek Synergy H4, excitation: 485 nm, emission: 535 nm). […]
tested compounds. GraphPad Prism software was used to calculate the IC50 values. The result is given as the average value of three independent measurements. […]

[6] = test system: MCF-7 cells; test: Antiproliferative MTT assay; settings: for IC50: Homo sapiens, MCF7, read-out: Antiproliferative activity IC50 ± SEM, MCF-7
From the text: as §8
Assay for antiproliferative effect

[7] = test system: Panc-1 cells; test: Antiproliferative MTT assay; settings: Homo sapiens, PANC-1, read-out: Antiproliferative activity IC50 ± SEM, Panc-1
From the text: as §8
Assay for antiproliferative effect

[8] = test system: B. subtilis; test: MIC by twofold serial dilution; assay type: cell-based, Bacillus subtilis (ATCC 6051); settings: for MIC: Bacillus subtilis, read-out: Minimum inhibitory concentration (MIC), B. subtilis; for MIC / Minimum inhibitory concentration (MIC), B. subtilis: Gram-positive
Method: (§1) The antibacterial efficacy of compounds 11b, 11e, and 12b was evaluated against Gram-positive bacteria (S. aureus and B. subtilis) and Gram-negative bacteria (E. coli and P. aeruginosa). Table 5 presents the MICs (nM) of these compounds against the evaluated bacteria, utilizing ciprofloxacin as the reference drug, determined through a twofold serial dilution approach on a 96-well microtiter plate ([Frejat F. O. et al., 2022]).
as §1, with “The” for “Table 5 presents the”, “the tested” for “these”, “bacteria were” for “bacteria, utilizing ciprofloxacin as the reference drug,”, “2022]). See Appendix A for more details.” for “2022]).”
(§2) 4.2. Antimicrobial activity
(§3) 4.2.1. Organisms and culture conditions […]
(§4) 4.2.2. Minimum inhibitory concentration assay
(§5) In 96-well microtiter plates and […] of fresh bacterial culture of a single McFarland unit overnight, a double serial dilution of each compound […] in sterile standard saline were prepared to every single source well. Ciprofloxacin antibiotic (5 mg / mL-1) and normal saline were included as standard reference in each assay. The plates were incubated at 37 0C overnight.
(§6) As an indicator of bacterial growth, […] of p -iodonitrotetrazolium violet (INT) was added to each well and incubated at 37 0C for 30 min. MIC values are recorded as the lowest concentration […]
(§7) tetrazolidium salt acts as an electron accepter and is reduced to a red colored formazan product by biological activity organisms. Where bacterial growth was inhibited, the solution in the well remained clear after incubation with INT. […]

[9] = test system: E. coli; test: MIC by twofold serial dilution; assay type: cell-based, Escherichia coli (ATCC 11775); settings: Gram-negative; for MIC: Escherichia coli, read-out: Minimum inhibitory concentration (MIC), E. coli
Method: as §1
as §1, with “The” for “Table 5 presents the”, “the tested” for “these”, “bacteria were” for “bacteria, utilizing ciprofloxacin as the reference drug,”, “2022]). See Appendix A for more details.” for “2022]).”
as §2, §3, §4, §5, §6, §7

[10] = test system: P. aeruginosa; test: MIC by twofold serial dilution; assay type: cell-based, Pseudomonas aeuroginosa (ATCC 10145); settings: Gram-negative; for MIC: Pseudomonas aeruginosa, read-out: Minimum inhibitory concentration (MIC), P. aeruginosa
Method: as §1
as §1, with “The” for “Table 5 presents the”, “the tested” for “these”, “bacteria were” for “bacteria, utilizing ciprofloxacin as the reference drug,”, “2022]). See Appendix A for more details.” for “2022]).”
as §2, §3, §4, §5, §6, §7

[11] = test system: S. aureus; test: MIC by twofold serial dilution; assay type: cell-based, Staphylococcus aureus (ATCC 12600); settings: Gram-positive; for MIC: Staphylococcus aureus, read-out: Minimum inhibitory concentration (MIC), S. aureus
Method: as §1
as §1, with “The” for “Table 5 presents the”, “the tested” for “these”, “bacteria were” for “bacteria, utilizing ciprofloxacin as the reference drug,”, “2022]). See Appendix A for more details.” for “2022]).”
as §2, §3, §4, §5, §6, §7

[12] = target: VEGFR-2 (Homo sapiens, UniProt P35968); test: VEGFR-2 inhibitory assay
VEGFR-2, sequence (P35968 20-1356): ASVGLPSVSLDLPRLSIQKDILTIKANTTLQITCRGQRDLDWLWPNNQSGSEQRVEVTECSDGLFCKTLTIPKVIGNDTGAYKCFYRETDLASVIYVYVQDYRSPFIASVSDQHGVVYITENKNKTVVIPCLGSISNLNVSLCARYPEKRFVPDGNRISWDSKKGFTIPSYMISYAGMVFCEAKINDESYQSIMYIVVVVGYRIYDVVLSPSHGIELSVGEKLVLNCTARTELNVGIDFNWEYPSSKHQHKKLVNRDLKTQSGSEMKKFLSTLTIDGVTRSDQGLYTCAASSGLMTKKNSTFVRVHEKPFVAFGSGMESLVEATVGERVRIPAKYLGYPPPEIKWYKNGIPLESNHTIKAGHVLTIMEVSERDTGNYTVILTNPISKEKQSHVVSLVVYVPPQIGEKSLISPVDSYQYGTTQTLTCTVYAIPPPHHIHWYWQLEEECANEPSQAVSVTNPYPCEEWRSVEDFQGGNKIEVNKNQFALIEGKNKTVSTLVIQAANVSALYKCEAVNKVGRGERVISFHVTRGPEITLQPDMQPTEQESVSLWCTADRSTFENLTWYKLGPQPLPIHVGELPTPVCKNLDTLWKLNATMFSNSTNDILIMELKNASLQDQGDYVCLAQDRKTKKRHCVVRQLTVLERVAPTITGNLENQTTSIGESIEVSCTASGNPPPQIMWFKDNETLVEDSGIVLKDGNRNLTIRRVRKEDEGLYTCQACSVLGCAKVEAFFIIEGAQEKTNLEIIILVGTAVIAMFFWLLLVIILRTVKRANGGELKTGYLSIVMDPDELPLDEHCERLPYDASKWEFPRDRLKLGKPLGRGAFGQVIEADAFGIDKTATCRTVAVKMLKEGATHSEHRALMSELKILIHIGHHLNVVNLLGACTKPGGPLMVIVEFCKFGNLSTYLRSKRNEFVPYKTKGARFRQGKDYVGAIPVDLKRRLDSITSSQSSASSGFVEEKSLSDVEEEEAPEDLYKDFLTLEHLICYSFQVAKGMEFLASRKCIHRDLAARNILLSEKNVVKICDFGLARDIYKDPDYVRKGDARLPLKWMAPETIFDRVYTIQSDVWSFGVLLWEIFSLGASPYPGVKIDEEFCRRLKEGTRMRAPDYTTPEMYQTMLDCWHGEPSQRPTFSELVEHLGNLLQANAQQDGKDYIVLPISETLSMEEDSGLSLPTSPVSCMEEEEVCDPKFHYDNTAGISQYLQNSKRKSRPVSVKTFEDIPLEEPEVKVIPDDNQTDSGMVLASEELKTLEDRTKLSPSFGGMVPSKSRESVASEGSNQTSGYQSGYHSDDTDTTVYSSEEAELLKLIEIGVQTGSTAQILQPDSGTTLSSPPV
Method: The outcomes are presented as IC50 values.
(§9) was added to each well followed by incubation of 1h and then washing of the plates using buffer.
(§10) The enhancement solution was added to each well and the signal was recorded at excitation and
(§11) The autophosphorylation percentage inhibition by compounds was calculated using the following equation:
Prepare all the solutions using autoclaved, deionized water and analytical grade reagents.
and store all the reagents at room temperature (unless indicated otherwise).
solution, add 5 mL ultra-pure water; 1×Kinase Assay Buffer: add 25 mL HEPES solution (1 M),
water, adjust pH to 7.5 and constant volume to 500 mL using ultrapure water; 4×Stop solution (40
mM): Mix 0.8 mL of the foregoing EDTA solution, 1 mL 10×Detection Buffer and 8.2 mL ultra-
pure water; 1×Detection Buffer: Mix 1 mL 10×Detection Buffer with 9 mL water; 4×VEGFR
μM) was added to 624 μL 1×Kinase Assay Buffer and mixed; 4×ULight™-labeled JAK1
(substrate) (200 nM, 25 times diluted): 24 μL ULight™-labeled JAK1 (mother liquor
concentration 5 μM) was added to 576 μL 1×Kinase Assay Buffer and mixed; 4×ATP Solution
(40 μM, 250 times diluted): add 3 μL ATP solution (10 mM) to 747 μL 1×Kinase Assay Buffer
2×substrate/ATP Mix: 560 μL foregoing 4×ULight™-labeled JAK1 and 560 μL 4×ATP solution
and mixed (prepared before use). The assays used an ULight-labeled peptide substrate and a
Europium-W1024-labeled antiphosphotyrosine antibody. The VEGFR-2 was purchased from
Carna Biosciences, Inc. (New York, USA). The 384-well plates were obtained from PerkinElmer.
5 μL 2×VEGFR-2 kinase solution (0.5 nM)
was added to 384-well plates homogeneous mixing and pre-reaction at room temperature for 30 min. Next, 2.5 μL 4×Ultra ULightTM-JAK-1(Tyr1023) Peptide (200 nM)/ATP (40 μM) was added to the corresponding wells of a 384-well plate. Negative control: 2.5 μL/well 4×substrate/ATP mixture and 7.5 μL 1×kinase assay buffer in 384-well plate well. Positive control:
μL/well 2×VEGFR-2 kinase solution was added to the 384-well plate, The final concentration of DMSO in the mixing system was 4%. After incubation at room temperature and dark for 60 min, 5 μL 4×stop solution was added to corresponding wells to react for 5 min and then 5 μL 4×detection mix was added to the corresponding wells of a 384-well plate. The mixture was centrifugally mixed and stayed for 60 min at room temperature for color development. The plate was read using a Envision plate reader. The inhibition rate (%) = (positive well reading-compound well reading)/(positive well reading-negative well reading)×100. The corresponding IC50 values were calculated using GraphPad Prism 5.0.

[13] = target: EGFR (Homo sapiens, UniProt P00533); test: EGFR-TK inhibitory assay
EGFR, sequence (P00533 669-1210): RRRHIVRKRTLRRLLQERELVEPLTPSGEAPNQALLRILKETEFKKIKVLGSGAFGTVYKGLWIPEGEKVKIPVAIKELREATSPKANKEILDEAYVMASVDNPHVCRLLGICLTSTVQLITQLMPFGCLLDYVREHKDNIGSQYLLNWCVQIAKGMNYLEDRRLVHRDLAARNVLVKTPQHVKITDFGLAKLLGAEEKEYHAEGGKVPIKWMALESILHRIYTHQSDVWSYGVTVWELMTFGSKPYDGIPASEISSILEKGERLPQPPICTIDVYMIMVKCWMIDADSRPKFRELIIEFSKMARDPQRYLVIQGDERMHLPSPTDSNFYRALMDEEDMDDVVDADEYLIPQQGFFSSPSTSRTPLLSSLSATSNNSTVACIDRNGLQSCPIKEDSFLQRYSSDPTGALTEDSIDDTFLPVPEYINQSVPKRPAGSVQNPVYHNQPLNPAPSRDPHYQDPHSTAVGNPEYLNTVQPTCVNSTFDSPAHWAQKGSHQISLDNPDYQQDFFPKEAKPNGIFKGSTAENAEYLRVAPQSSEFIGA
Method: Baculoviral expression vectors including pBlueBacHis2B and pFASTBacHTc were used
5ʹ upstream to the EGFR sequence comprised a sequence that encoded (His)6. Sf-9 cells were infected for 72h for protein expression. The pellets of Sf-9 cells were solubilized in a buffer containing sodium vanadate (100 μM), aprotinin (10 μg/mL), triton (1%), HEPES buffer(50mM), ammonium molybdate (10 μM), benzamidine HCl (16 μg/mL), NaCl (10 mM),leupeptin (10 μg/mL) and pepstatin (10 μg/mL) at 0°C for 20 min at pH 7.4, followed by centrifugation for 20 min. To eliminate the nonspecifically bound material, a Ni-NTA super flow packed column was used to pass through and wash the crude extract supernatant first with 10mM and then with 100 mM imidazole. Histidine-linked proteins were first eluted with 250 and then with 500 mM imidazole subsequent to dialysis against NaCl (50 mM), HEPES (20 mM), glycerol (10%) and 1 μg/mL each of aprotinin, leupeptin and pepstatin for 120 min. The purification was performed either at 4 °C or on ice. To record autophosphorylation level, EGFR kinase assay was carried out on the basis of DELFIA/Time-Resolved Fluorometry. The compounds were first
dissolved in DMSO absolute, subsequent to dilution to appropriate concentration using HEPES
(25 mM) at pH 7.4. Each compound (10 μL) was incubated with recombinant enzyme (10 μL, 5
ng for EGFR, 1:80 dilution in 100 mM HEPES) for 10 min at 25 °C, subsequent to the addition of
5X buffer (10 μL, containing 2 mM MnCl2, 100 μM Na3VO4, 20 mM HEPES and 1 mM DTT)
and ATP-MgCl2 (20 μL, containing 0.1 mM ATP and 50 mM MgCl2) and incubation for 1h. The
negative and positive controls were included in each plate by the incubation of enzyme either with
or without ATP-MgCl2. The liquid was removed after incubation and the plates were washed
thrice using a wash buffer. The Europium-tagged antiphosphotyrosine antibody (75 μL, 400 ng)
as §9, §10, §11
calculated. The majority of signals detected by antiphosphotyrosine antibody were from EGFR because the enzyme preparation contained low impurities.

| Compound | IC50 [1] [nM] | IC50 [2] [nM] | GI50 [3] [nM] | viability at 96 h, 50 µM [4] [%] | IC50 [5] [nM] | IC50 [6] [nM] | IC50 [7] [nM] | IC50 [12] [nM] | IC50 [13] [nM] | remaining activity at 1 µM [5] [%] | further results |
| --- | --- | --- | --- | --- | --- | --- | --- | --- | --- | --- | --- |
| COc1ccc(/C=C/C(=O)c2sc(SCC(=O)c3cc4cc(Br)ccc4o3)nc2C)cc1 [Compound 12f, (E)-1-(2-((2-(5-Bromobenzofuran-2-yl)-2-oxoethyl)thio)-4-methylthiazol-5-yl)-3-(4-methoxyphenyl)prop-2-en-1-one] | 56 ± 4 | 55 ± 4 | 57 | 92 | 208 ± 15 | 59 ± 4 | 56 ± 4 |  |  |  | Fold less potent than compound 11f (GI50) [3]: 2.1 fold; Fold less effective than compound 11b (DNA gyrase IC50) [5]: approximately 1.2 fold |
| Cc1nc(SCC(=O)c2cc3cc(Br)ccc3o2)sc1C(=O)/C=C/c1ccc(Cl)cc1 [Compound 12e, (E)-1-(2-((2-(5-bromobenzofuran-2-yl)-2-oxoethyl)thio)-4-methylthiazol-5-yl)-3-(4-chlorophenyl)prop-2-en-1-one] | 62 ± 5 | 60 ± 5 | 62 | 94 | 217 ± 15 | 64 ± 5 | 62 ± 5 |  |  |  | Fold less efficient than 11e (GI50) [3]: 1.5 fold; Fold less effective than compound 11b (DNA gyrase IC50) [5]: approximately 1.2 fold |
| Cc1nc(SCC(=O)c2cc3ccccc3oc2=O)sc1C(=O)/C=C/c1ccc(Cl)cc1 [Compound 11b, (E)-3-(2-((5-(3-(4-Chlorophenyl)acryloyl)-4-methylthiazol-2-yl)thio)acetyl)-2H-chromen-2-one] | 72 ± 6 | 69 ± 6 | 71 | 92 | 182 ± 13 | 74 ± 6 | 70 ± 6 |  |  |  | Fold less efficient than ciprofloxacin (MIC), B. subtilis [8]: 1.8 fold; MIC [8]: 0.018 µM (≈ 0.00868 µg/mL); Minimum inhibitory concentration (MIC), B. subtilis [8]: 0.018 ± 0.001 µM (≈ 0.00868 µg/mL); MIC [9]: 0.042 µM (≈ 0.0202 µg/mL); Minimum inhibitory concentration (MIC), E. coli [9]: 0.042 ± 0.003 µM (≈ 0.0202 µg/mL); Fold less effective than novobiocin (DNA gyrase IC50) [5]: 1.1 fold; Minimum inhibitory concentration (MIC), P. aeruginosa [10]: 0.045 ± 0.003 µM (≈ 0.0217 µg/mL); MIC [10]: 0.045 µM (≈ 0.0217 µg/mL); Minimum inhibitory concentration (MIC), S. aureus [11]: 0.023 ± 0.001 µM (≈ 0.0111 µg/mL); MIC [11]: 0.023 µM (≈ 0.0111 µg/mL) |
| Cc1nc(SCC(=O)c2cc3ccccc3oc2=O)sc1C(=O)/C=C/c1ccccc1 [Compound 11a, (E)-3-(2-((5-Cinnamoyl-4-methylthiazol-2-yl)thio)acetyl)-2H-chromen-2-one] | 44 ± 3 | 40 ± 2 | 44 | 91 |  | 48 ± 3 | 44 ± 3 | 5200 ± 30 | 93 ± 4 | 72 |  |
| C#Cc1cccc(Nc2ncnc3cc(OCCOC)c(OCCOC)cc23)c1 [Erlotinib, reference compound] | 30 ± 3 | 30 ± 3 |  |  |  | 40 ± 3 | 30 ± 3 |  |  |  |  |
| COc1ccc(/C=C/C(=O)c2sc(SCC(=O)c3cc4ccccc4o3)nc2C)cc1 [Compound 12c, (E)-1-(2-((2-(Benzofuran-2-yl)-2-oxoethyl)thio)-4-methylthiazol-5-yl)-3-(4-methoxyphenyl)prop-2-en-1-one] | 37 ± 2 | 33 ± 2 | 36 | 91 |  | 39 ± 2 | 36 ± 2 | 4050 ± 20 | 83 ± 3 | 59 |  |
| Cc1nc(SCC(=O)c2cc3cc(Br)ccc3oc2=O)sc1C(=O)/C=C/c1ccccc1 [Compound 11d, (E)-6-Bromo-3-(2-((5-cinnamoyl-4-methylthiazol-2-yl)thio)acetyl)-2H-chromen-2-one] | 30 ± 1 | 28 ± 1 | 30 | 95 |  | 31 ± 1 | 30 ± 1 | 3600 ± 20 | 76 ± 3 | 54 | Fold less potent than compound 11f (GI50) [3]: 1.1 fold |
| COc1ccc(/C=C/C(=O)c2sc(SCC(=O)c3cc4cc(Br)ccc4oc3=O)nc2C)cc1 [Compound 11f, (E)-6-Bromo-3-(2-((5-(3-(4-methoxyphenyl)acryloyl)-4-methylthiazol-2-yl)thio)acetyl)-2H-chromen-2-one] | 28 ± 1 | 25 ± 1 | 27 | 93 |  | 29 ± 1 | 26 ± 1 | 2900 ± 10 | 71 ± 3 | 71 | Fold more potent than erlotinib (IC50), A-549 ([2]; A-549): 1.2 fold; Fold more active than erlotinib (GI50) ([3]; four cancer cell lines): 1.2 fold; Fold more potent than erlotinib (IC50), MCF-7 ([6]; MCF-7): 1.4 fold |
| Cc1nc(SCC(=O)c2cc3ccccc3o2)sc1C(=O)/C=C/c1ccc(Cl)cc1 [Compound 12b, (E)-1-(2-((2-(Benzofuran-2-yl)-2-oxoethyl)thio)-4-methylthiazol-5-yl)-3-(4-chlorophenyl)prop-2-en-1-one] | 65 ± 5 | 61 ± 5 | 65 | 90 | 197 ± 12 | 68 ± 5 | 64 ± 5 |  |  |  | MIC [8]: 0.029 ± 0.001 µM (≈ 0.0132 µg/mL); MIC [9]: 0.062 ± 0.004 µM (≈ 0.0281 µg/mL); MIC [10]: 0.064 ± 0.004 µM (≈ 0.0291 µg/mL); MIC [11]: 0.034 ± 0.002 µM (≈ 0.0154 µg/mL) |
| Cc1nc(SCC(=O)c2cc3ccccc3o2)sc1C(=O)/C=C/c1ccccc1 [Compound 12a, (E)-1-(2-((2-(Benzofuran-2-yl)-2-oxoethyl)thio)-4-methylthiazol-5-yl)-3-phenylprop-2-en-1-one] | 66 ± 5 | 65 ± 5 | 67 | 93 |  | 70 ± 5 | 66 ± 5 |  |  | 61 |  |
| O=C(O)c1cn(C2CC2)c2cc(N3CCNCC3)c(F)cc2c1=O [Ciprofloxacin, reference compound] |  |  |  |  |  |  |  |  |  |  | MIC [8]: 0.01 µM (≈ 0.00331 µg/mL); Minimum inhibitory concentration (MIC), B. subtilis [8]: 0.01 ± 0.001 µM (≈ 0.00331 µg/mL); MIC [9]: 0.06 ± 0.004 µM (≈ 0.0199 µg/mL); MIC [10]: 0.06 ± 0.004 µM (≈ 0.0199 µg/mL); MIC [11]: 0.03 ± 0.002 µM (≈ 0.00994 µg/mL) |
| Cc1nc(SCC(=O)c2cc3cc(Br)ccc3o2)sc1C(=O)/C=C/c1ccccc1 [Compound 12d, (E)-1-(2-((2-(5-Bromobenzofuran-2-yl)-2-oxoethyl)thio)-4-methylthiazol-5-yl)-3-phenylprop-2-en-1-one] | 48 ± 3 | 45 ± 3 | 48 | 90 |  | 50 ± 3 | 48 ± 3 |  |  | 65 | Fold less effective than 11d (GI50) [3]: 1.6 fold |
